One test deals with Laforin (Homo sapiens (Human), UniProt O95278). As to the kind of experiment: pNPP hydrolysis enzyme assay, Laforin. It is filed as biochemical. Here is the method:
(§1) Enzyme kinetic assay. PTP activity was assayed using p-nitrophenyl phosphate (pNPP) as a substrate in 3,3-dimethylglutarate buffer (50 mM 3,3-dimethylglutarate, pH 7.0, 1 mM EDTA, 150 mM NaCl, 2 mM DTT, 0.1 mg/mL BSA) at 25° C. The assays were performed in 96-well plates. Normally, to determine the IC50 values, the reaction was initiated by the addition of enzyme (final concentration at 10 nM) to a reaction mixture (0.2 mL) containing 2 mM (Km for the substrate) pNPP with various concentrations of inhibitors. The reaction rate was measured using a SpectraMax Plus 384 Microplate Spectrophotometer (Molecular Devices). To determine the mode of inhibition, the reactions were initiated by the addition of PTP-MEG2 to the reaction mixtures (0.2 mL) containing various concentrations of pNPP with different concentrations of the inhibitor 7. Data were fitted using SigmaPlot Enzyme Kinetics Module (Systat Software, Inc.).

The subject of test [1] is panel of mammalian PTPs (PTP-MEG1, SHP1, SHP2, Lyp, FAP-1, PTP-PEST, PTPH1, Laforin, HePTP, CD45, LAR, DEP1, PTPμ, PTPγ, PTPβ, PTPε, VHR, VHX). The test can be described thus: Inhibition of a panel of mammalian PTPs at 10 μM. It is filed as biochemical. Here is the method: as §1
In test [2] the test system is insulin signaling in mouse primary hepatocytes. The test can be described thus: Insulin signaling in mouse primary hepatocytes (Western blot). It is filed as cell-based. The settings on record: for increase of phosphorylated IR (Tyr1162/1163): 1 hour pretreatment, 5 nM insulin 5 minutes, vs DMSO. Here is the method: FIGS. 4A-B depict the ability of PTP-MEG2 inhibitor Compound 7 to sensitize insulin signaling in primary hepatocytes. […] Mouse primary hepatocytes were cultured in 0.5% FBS DMEM medium overnight. Prior to insulin stimulation, the cells were pretreated with Compound 7 or 8 for 1 hour. Then the cells were stimulated with 5 nM insulin for 5 minutes. Insulin signaling was analyzed by Western Blots using phospho-specific antibodies. […] Mouse primary hepatocytes were cultured in DMEM medium plus 0.5% FBS for overnight in the presence or absence of insulin or Compound 7 or 8. Then the cells were harvested for mRNA isolation and gene expression analysis using real-time PCR. The mRNA levels of Foxo1 target genes were normalized with Ppia as an internal control. Data are presented as mean±SEM. *, P<0.05 for Compound 7 vs. DMSO; #, P<0.05 for INS+Compound 7 vs. INS alone.
FIG. 10 depicts the time course of pIR (Tyr 1162/63) level. Primary hepatocyte cells were starved overnight. Prior to insulin stimulation, the cells were preincubated with either vehicle DMSO, Compound 7, or Compound 8 for 1 hour. Then the cells were stimulated with 5 nM Insulin for 0, 5, 30, 60 min. Cell lysates were harvested for Western Blot, using anti-pIR (Tyr 1162/63) antibodies.
Mouse primary hepatocytes were isolated and cultured in DMEM medium with 0.5% FBS for 12 hours, and then were incubated with either vehicle DMSO, Compound 7 (100 nM), or Compound 8 (100 nM) for one hour. Phosphorylated IR, Gsk3β, and Foxo1 and the corresponding total proteins were analyzed by Western blots.
PTP-MEG2 inhibitor Compound 7 augments insulin signaling in cells. Given the excellent potency and selectivity of Compound 7 toward PTP-MEG2, we proceeded to evaluate its effect on PTP-MEG2-dependent signaling inside the cell. To assess the effects of Compound 7 on insulin signaling, we pretreated mouse primary hepatocytes with Compound 7 for 1 hour and then stimulated the cells with 5 nM insulin for 5 minutes. […] Remarkably, the phosphorylated form of IR was increased 50% and 100% at concentrations of 50 nM (1.5×Ki) and 100 nM of Compound 7, respectively (FIG. 4A and FIG. 8). […] Phosphorylation of Akt (Ser473) was increased by 3.1 and 4.5 fold; phosphorylation of GSK-3β (Ser9) was increased by 1.5 and 2.0 fold; and phosphorylation of Foxo1 (Ser253) was increased by 2.1 and 2.9 fold at 100 and 200 nM concentrations of Compound 7, respectively.
Western blot analysis. Cells were homogenized in the lysis buffer (50 mM Hepes, pH 7.5, 150 mM NaCl, 10% Glycerol, 1% Triton X-100, 1.5 mM MgCl2, 1 mM EGTA, 10 μM Sodium Pyrophosphate, 100 mM sodium fluoride and freshly added 100 μM sodium vanadate, 1 mM PMSF, 10 μg/ml Aprotinin, and 10 μg/mL Leupeptin). Protein extracts were resolved on an SDS-PAGE gel and transferred to nitrocellulose membrane. Proteins were probed using the following antibodies: IR(pY1162/63), IR (Santa Cruz Biotechnology), Akt(pS473), Aid, GSK3β(pS9), GSK3β, Foxo1(pS256), Foxo1, Erk1/2(pT202/Y204), Erk1/2 (Cell Signaling Technology). Protein signals were detected by incubation with HRP-conjugated secondary antibodies, followed by ECL detection reagent (Pierce). Western blots were scanned and quantified using the Quantity One software (Bio-Rad).
(In general: A western blot detects proteins with antibodies after separation by electrophoresis.)

The target in the next test is HePTP (Homo sapiens (Human), UniProt P35236). As to the kind of experiment: pNPP hydrolysis enzyme assay, HePTP. It is filed as biochemical. The method, then:
as §1

Molecules are shown by their SMILES.

We go through 1 molecule from patent publication US9340574B2, “Inhibitors of protein tyrosine phosphatases” (Indiana University Research and Technology Corporation, priority 2012, dated 2016).

Chain of Laforin (O95278 whole entry, species assumed): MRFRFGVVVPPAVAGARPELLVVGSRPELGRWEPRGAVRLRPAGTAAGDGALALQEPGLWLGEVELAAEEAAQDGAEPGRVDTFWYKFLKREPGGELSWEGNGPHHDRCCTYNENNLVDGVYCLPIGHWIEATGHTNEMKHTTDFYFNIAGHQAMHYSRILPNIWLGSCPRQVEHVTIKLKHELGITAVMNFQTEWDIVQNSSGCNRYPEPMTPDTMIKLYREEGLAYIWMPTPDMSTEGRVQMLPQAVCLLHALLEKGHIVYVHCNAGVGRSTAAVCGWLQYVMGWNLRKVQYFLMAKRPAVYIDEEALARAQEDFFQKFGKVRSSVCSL
Chain of HePTP (P35236 whole entry, species assumed): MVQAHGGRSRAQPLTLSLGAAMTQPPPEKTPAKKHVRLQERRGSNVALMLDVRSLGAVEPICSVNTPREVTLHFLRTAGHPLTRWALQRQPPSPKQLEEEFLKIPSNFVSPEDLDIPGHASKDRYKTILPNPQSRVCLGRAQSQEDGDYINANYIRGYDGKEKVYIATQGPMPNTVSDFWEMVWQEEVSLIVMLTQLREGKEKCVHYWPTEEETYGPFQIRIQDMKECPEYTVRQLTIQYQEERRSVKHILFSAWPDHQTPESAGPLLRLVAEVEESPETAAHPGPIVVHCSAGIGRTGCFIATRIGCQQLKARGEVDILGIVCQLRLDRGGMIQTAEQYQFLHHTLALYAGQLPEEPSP

By IC50 is commonly meant the concentration that inhibits the measured activity by half. At Laforin, `COc1cc(CC(=O)NCC(NC(=O)C(CCCNC(=O)c2cccc(I)c2)NC(=O)C(Cc2ccc(C(F)(F)P(=O)(O)O)cc2)NC(=O)c2ccc(C)c(Br)c2)C(N)=O)ccc1O` (centres unmarked) [Compound 7] yielded a 50% inhibitory concentration (IC50) of over 10000 nM. Further, in test [1], the “inhibition of a panel of mammalian PTPs” value was “no inhibition”. Further, the “increase of phosphorylated IR (Tyr1162/1163)” value in test [2] (50 nM compound) worked out at 50%. Also, in test [2] (100 nM compound, 5 nM insulin), the “increase of Akt (Ser473) phosphorylation” value stood at 3.1 fold, the “increase of Foxo1 (Ser253) phosphorylation” value is 2.1 fold and the “increase of GSK-3β (Ser9) phosphorylation” value is 1.5 fold. Besides, in test [2] (100 nM compound), the “increase of phosphorylated IR (Tyr1162/1163)” value is listed as 100%. The “insulin signaling pathway under basal conditions” value in test [2] (100 nM, one hour, no insulin) is recorded as “enhanced”. Also, in test [2] (200 nM compound, 5 nM insulin), the “increase of Akt (Ser473) phosphorylation” value stood at 4.5 fold, the “increase of Foxo1 (Ser253) phosphorylation” value worked out at 2.9 fold and the “increase of GSK-3β (Ser9) phosphorylation” value is 2.0 fold. The Erk1/2 activation result in test [2] (insulin-stimulated hepatocytes) was “strongly enhanced”. In test [2] (no insulin, 100 nM, 1 hour), the “increase of basal phosphorylation of Foxo1” value stood at 2.2 fold, the “increase of basal phosphorylation of GSK-3β” value stood at 2.0 fold and the “increase of basal phosphorylation of IR” value is 2.1 fold. The “duration of potentiation of insulin stimulated IR phosphorylation” value in test [2] (time course 0, 5, 30, 60 min, 5 nM insulin) is on record as “at least 1 hour”. The IC50 against HePTP was over 10000 nM.
